Assay results as given in patent US12358859B2, “Series of compounds for treatment of skin diseases and other conditions” (Unigen, Inc., priority 2018, dated 2025).

Legend:
[1] = system: reconstructed skin (keratinocytes and melanocytes); assay: Reconstructed human skin model (Melanoderm); format: cell-based; conditions: for significant whitening of melanocytes observed as early as: after the beginning of the experiment (data not shown); for alterations of cell morphology / whitening effects on skin melanocytes: applied topically for 15 days; for whitening effects on melanocytes: topical, photographs after 14 days; for toxicity on reconstructed skin: at 0.05%
Method: The skin whitening effects of test compounds were studied using a reconstructed skin model, Melanoderm™ provided by MatTek Corp. (Ashland, Mass.) according to the manufacturer's specifications. Briefly, normal human epidermal keratinocytes and normal human melanocytes derived from dark skin donors were co-cultured on a surface of collagen-coated membrane to form multi-layered, highly differentiated skin tissue (MEL-300-B). The tissues were maintained in the CO2, incubator at 37° C. The apical surfaces of the reconstructed skin (9 mm in diameter) were exposed to air whereas the bottom surfaces remained in contact with 5 mL of maintenance medium, containing skin differentiating factors (EPI-100-NNM-113). Test compounds were formulated in 80% propylene glycol as follows: 10 mg of each test compound was dissolved in DMSO and diluted with 80% propylene glycol (1,2-propanediol, Sigma-Aldrich) to stock concentrations. The compounds were then sterilized by passing through 0.2 um filter and diluted in sterile water/propylene glycol to final test concentrations in 0.5% DMSO, 80% propylene glycol. In addition, the following controls were used: 80% propylene glycol with 0.5% DMSO, and 1% kojic acid in 80% propylene glycol.
‘Test compounds were applied to the apical surface of the tissues as follows: 25 μl of each test compound, 25 μl of 80% propylene glycol (vehicle control), and 25 μl of 1% kojic acid (positive control). The samples were reapplied every other day for 14 days. All the samples were tested in duplicate. At the end of the experiment microscopic images were taken.
The potential skin-whitening properties of test compounds were explored in a reconstructed skin model. The model consists of normal, human-derived epidermal keratinocytes and melanocytes, which have been co-cultured to form a multilayered, highly differentiated human epidermis. In this study the melanocytes were obtained from a highly pigmented donor.
Different concentrations of test compounds, 80% propylene glycol (the vehicle control), or 1% kojic acid (positive control) were repeatedly applied topically on the surface of the reconstructed skin for 15 days. […] Photographs of skin specimen taken after 15 days of the experiment show significant dose-dependent whitening effects on melanocytes, which appear on photographs as dark dendritic cells.

COX-1 = target: T1, COX-1 (Ovis aries, UniProt P05979); assay: COX-1 enzymatic inhibition assay; format: biochemical; conditions: for IC50: read-out: Anti-inflammatory (IC50) COX-1
T1 construct: purchased Cayman Chemical 701050
T1 sequence (P05979 25-600): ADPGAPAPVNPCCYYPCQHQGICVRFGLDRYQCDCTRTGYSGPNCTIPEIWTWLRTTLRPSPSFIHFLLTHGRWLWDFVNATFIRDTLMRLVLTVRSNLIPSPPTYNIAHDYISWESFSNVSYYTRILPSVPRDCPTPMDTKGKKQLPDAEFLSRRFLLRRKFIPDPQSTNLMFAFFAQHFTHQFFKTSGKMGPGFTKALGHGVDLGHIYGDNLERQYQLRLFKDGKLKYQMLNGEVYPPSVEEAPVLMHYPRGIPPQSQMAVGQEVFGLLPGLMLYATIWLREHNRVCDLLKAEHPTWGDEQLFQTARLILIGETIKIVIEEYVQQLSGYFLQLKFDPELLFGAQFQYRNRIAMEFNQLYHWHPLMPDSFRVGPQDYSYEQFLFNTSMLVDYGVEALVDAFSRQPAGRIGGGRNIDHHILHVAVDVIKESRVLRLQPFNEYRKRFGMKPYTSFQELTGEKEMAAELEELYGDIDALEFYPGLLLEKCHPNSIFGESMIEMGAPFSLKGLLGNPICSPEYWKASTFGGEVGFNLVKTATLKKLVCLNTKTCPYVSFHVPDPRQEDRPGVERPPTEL
Method: (§1) In order to screen for compounds that inhibited COX-1 and Cox-2 activity, enzymatic inhibition assay kits were purchased from Cayman Chemical (cat #701050). Briefly, the compound being examined was treated against a fixed amount of COX-1 and COX-2 enzymes. A cleavable, peroxide chromophore was included in the assay to visualize the peroxidase activity of each enzyme in presence of arachidonic acid as […]. Typically, assays were performed in 96-well format. Each inhibitor, taken from a 1 M stock solution in 100% DMSO, was tested in duplicate at room temperature using the following range of concentrations: 1.9, 3.9, 7.8, 15.6, 31.2, 62.5, 125, 250, 500, and 1000 μM. To each well, 150 μL of Assay Buffer was added along with 10 μL of Hemin, 10 μL of inhibitor diluted in DMSO and 10 μL of either COX-1 or COX-2 enzyme. The compounds were incubated for 5 minutes at room temperature, followed by the addition of 20 μL of Colormietric Substrate solution and 20 μL of arachidonic acid solution to initiate the reaction. The plate was mixed and incubated for 2 minutes before reading the absorbance at 590 nm. The inhibitor concentration vs. % of inhibition was plotted and the IC50 determined.

COX-2 = target: T2, COX-2 (Homo sapiens, UniProt P35354); assay: COX-2 enzymatic inhibition assay; format: biochemical; conditions: for IC50: read-out: Anti-inflammatory (IC50) COX-2
T2 construct: purchased Cayman Chemical 701050
T2 sequence (P35354 18-604): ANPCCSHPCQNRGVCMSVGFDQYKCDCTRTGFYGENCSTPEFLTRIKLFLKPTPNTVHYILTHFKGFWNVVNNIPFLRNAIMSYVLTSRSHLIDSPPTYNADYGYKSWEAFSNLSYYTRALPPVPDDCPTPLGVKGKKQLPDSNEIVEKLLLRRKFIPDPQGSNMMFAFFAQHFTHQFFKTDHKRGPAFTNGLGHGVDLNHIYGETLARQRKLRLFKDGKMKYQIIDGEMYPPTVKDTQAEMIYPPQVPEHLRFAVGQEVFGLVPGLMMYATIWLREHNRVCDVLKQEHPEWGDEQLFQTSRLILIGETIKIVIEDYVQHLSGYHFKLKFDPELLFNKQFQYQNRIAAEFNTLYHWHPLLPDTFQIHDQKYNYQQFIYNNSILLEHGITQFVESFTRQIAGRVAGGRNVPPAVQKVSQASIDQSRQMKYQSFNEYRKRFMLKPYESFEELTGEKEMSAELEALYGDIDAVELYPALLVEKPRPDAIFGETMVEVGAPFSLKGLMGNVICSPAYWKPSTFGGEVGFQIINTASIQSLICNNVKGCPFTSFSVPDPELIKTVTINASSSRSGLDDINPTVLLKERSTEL
Method: as §1

[2] = ORAC 5.0 antioxidant capacity; conditions: Trolox reference standard
Excerpt: Table 5 lists representative novel 1,6-dienes analogs of Formula I-III which are useful as anti-oxidant. ORAC 5.0 consists of five types of ORAC assays that evaluate the antioxidant capacity of material against five primary reactive oxygen species (ROSs, commonly called “oxygen radicals”) found in humans: peroxyl radical, hydroxyl radical, superoxide anion, singlet oxygen, and […]. Trolox is used as reference standard, and the results are expressed as μ mole Trolex equivalency per gram (or milliliter) of a tested material.

SMILES	significant whitening of melanocytes observed as early as [1] [days]	alterations of cell morphology [1]	whitening effects on skin melanocytes [1]	whitening effects on melanocytes [1]	IC50 (COX-1) [µM]	Anti-inflammatory (IC50) COX-2 (COX-2)	toxicity on reconstructed skin [1]	IC50 (COX-2) [µM]	ORAC [2] [μ mole TE/gram]	Anti-inflammatory (IC50) COX-1 (COX-1)
CC(C)=CCCC(C)=Cc1ccc(O)cc1 (mixture of isomers) [Compound 1, (E/Z)-4-(2,6-dimethylhepta-1,5-dienyl)phenol]	3	without causing any detectable alterations	significant whitening effects	significant whitening effects	122	Not active				
CC(C)=CCC/C(C)=C/c1cc(O)cc(O)c1 [Compound 4, (E/Z)-5-(2,6-dimethylhepta-1,5-dienyl)benzene-1,3-diol]				significant whitening effects	64		some toxicity	245	22580	
CC(C)=CCCC(C)/C=C/c1ccc(O)cc1 (stereo not shown) [Compound 5, (E)-4-(3,7-dimethylocta-1,6-dienyl)phenol]								72	37643	No Inhibition
CC(C)=CCCC(C)/C=C/c1ccc(O)cc1O (stereo not shown) [Compound 6, (E)-4-(3,7-dimethylocta-1,6-dienyl) benzene-1,3-diol]	3	without causing any detectable alterations	significant whitening effects	significant whitening effects	74			164	45869	
CC(C)=CCCC(C)/C=C/c1cc(O)cc(O)c1 (stereo not shown) [Compound 7, (E)-5-(3,7-dimethylocta-1,6-dienyl) benzene-1,3-diol]				significant whitening effects	25		some toxicity	135	18196	
CC(C)=CCCC(C)C/C=C\c1cc(O)cc(O)c1 (stereo not shown) [Compound 15, (Z)-5-(4,8-dimethylnona-1,7-dienyl) benzene-1,3-diol]				significant whitening effects	122	No Inhibition	some toxicity		11951	
